Results as given in patent US8940310B2, “Methods of treatment using TLR7 and/or TLR9 inhibitors” (Dynavax Technologies Corporation, priority 2010, dated 2015).
Marks after values point to notes of the source that are not given here.

Test: High dosages of IRPs in mice (weight, histology)
Format: in vivo, BALB/c mice
Conditions: ISS control (5 mg/kg)
Method: To test the activity of IRPs at high dosages in mice, IRPs or a control (saline) were subcutaneously administered to BALB/c mice at a dosage of 4 mg/kg, 20 mg/kg, 50 mg/kg, or 100 mg/kg on days 1, 4, 7, and 10 (n=5 per group). Mice were weighed prior to administration and on days 2, 4, 7, 9, and 11. Serum cytokines were assayed at two hours post the first and third injections and 24 hours post the fourth injection. Organs were harvested at the end of the study, and organ weights and tissues levels of the oligonucleotides were determined. In addition, histological evaluation of the liver, kidney, and heart was performed.
Mice were weighed prior to administration and on days 1, 3, 4, 6, 7, and 9. Organs were harvested at the end of the study, and organ weights and tissues levels of the oligonucleotides were determined. In addition, histological evaluation of the liver, kidney, and heart was performed.

5′-TGACTGTGAACGTTCGAGATGA-3′ [SEQ ID NO:157, reference compound]
Heart: Chronic inflammation, number of animals: 2
Heart: Mineralization, number of animals: 1
Heart: Chronic inflammation, mean severity score (0 = no change to 4 = severe): 2.0
Heart: Mineralization, mean severity score (0 = no change to 4 = severe): 4.0
Liver: Liver changes, mean severity score (0 = no change to 4 = severe): 2.0
Liver: Mixed cell infiltration, mean severity score (0 = no change to 4 = severe): 3.0
Right Kidney: Tubular basophilia, mean severity score (0 = no change to 4 = severe): 2.0
Liver: Liver changes, number of animals (6 animals): 6
Liver: Mixed cell infiltration, number of animals (6 animals): 6
Liver: No significan changes, number of animals (6 animals): 0
Right Kidney: No significant changes, number of animals (6 animals): 5
Right Kidney: Tubular basophilia, number of animals (6 animals): 1
Right Kidney: Tubular changes, number of animals (6 animals): 0
Heart: No significant changes, number of animals (tissue missing in two animals): 1**
